# Columns and labels:
# Format in all cases: in vivo
# [1] = tested on: Ipomoea gradifolia (IAOGR); assay: Ex 4 pre-emergence, visual % damage; details: kg/ha or L/ha: Amicarbazone 1.50, Gesapax 5.00, Karmex 5.00, Provence 0.20, Sencor 3.50, alone
# Description: DINAMIC® (amicarbazone) in combination of various herbicides listed in Table 4-1 were tested for herbicidal activity.
# The herbicidal effect was observed by comparing the extent of Ipomoea gradifolia (IAOGR) treated with the compounds against that occurring in similar non-treated control. Herbicidal effect was visually assessed and recorded at 14, 23, 36, 49, 65 and 77 days after treatment (DAT). Damage by the herbicidal compositions was evaluated with reference to a scale of 0% to 100% in comparison with untreated control. 0% means no damage and 100% means complete destruction of the plants. […] The theoretical herbicidal effect index were calculated based on Colby and the values were indicated in bracket ( ). […] Some of the observed herbicidal effects were the same as the theoretical hervicidal effects, which indicate additive effects. The underlined values in the table indicate that the observed weed killing is greater than calculated from the Colby formula and therefore indicates a synergistic weed killing effect or activity.
# Green Foxtail = assay: Ex 5/7 greenhouse spray, bleaching/injury ratings
# Description: (§1) Containers were watered as needed based on species and water usage. The greenhouse was heated to keep temperatures above 50° F. (10° C.) and ventilated as needed to keep temperatures below 100° F. (38° C.). Typical daytime temperatures in the greenhouse were 80-90° F. (27-32° C.) and nighttime temperatures were between 50-60° F. (10-16° C.). The soil employed was Promix BX potting soil. Overall moisture conditions were normal and the closest weather station was on-site. Conditions and equipment employed in this Example are tabulated below in Tables 5-1 and 5-2.
# (§2) All containers were moved outdoors from the greenhouse and arranged in blocks by treatment for the herbicide applications. A single spray application was applied to each block containing four repetitions of each species for each treatment. Plants were then immediately returned to the greenhouse and irrigated with approximately ¼″ water 1-3 hrs after treatment with a hose end sprayer. Only the Poa plants were trimmed with scissors two days prior to treatment at a height of approximately 3 inches.
# (§3) Referring to FIGS. 2A-B, 3A-C, 4A-C, and 5A-D, all ratings of injury or bleaching are based on a scale from 1 to 9. […] Any bleaching measurement 4 and above was considered unacceptable for desirable turf species. In injury measurements, 1 indicates no injury while 9 indicates a dead plant. Any injury measurement 4 and above was considered unacceptable for desirable turf species). Density correlates with percent cover where 1 indicates no grass while 9 indicates a full pot.
# (§4) Replications employed include 4, Untreated treatments: 1, Design: Randomized Complete Block, Treatment units: US standard, Treated plot size Width: 4 feet, Treated plot size Length: 4 feet, Application volume: 50 gal/ac, Mix size: 0.5562 liters, Mix overage: 100%, Format definitions: G-All7.DEF, G-All7.FRM.
# (§5) In evaluating synergism, the data from Example 5 above were converted to % of control. This was done based on the data provided on a 1-9 scale detailed in Example 5. Expected values were computed from the % of control data by the formula for expected control=[…], where A is the % of control value for herbicide A alone and B is the % of control value for herbicide B alone.
# Mustard (Sinapsis sp.) = assay: Ex 5/7 greenhouse spray, bleaching/injury ratings
# Description: as §1, §2, §3, §4, §5
# Poa annua = assay: Ex 5/7 greenhouse spray, bleaching/injury ratings
# Description: as §1, §2
# Transplanted tillering Kentucky Bluegrass was 5 to 6 months old, transplanted Poa annua was 5 to 6 months old. Tall fescue was seeded into the crabgrass pots. St. Augustine plants (Floratam and Saphire) were shipped from Port St. Lucie, Fla. Only two replicates of Saphire St. Augustine grass were used due to plant availability.
# as §3, §4, §5
# [2] = rating 1, 0.022 lbs ai/A (0.5 oz/A)
# [3] = rating 1, 0.13 lbs ai/A (3 oz/A)
# [4] = rating 2, 0.022 lbs ai/A (0.5 oz/A)
# [5] = rating 2, 0.13 lbs ai/A (3 oz/A)
# [6] = rating 3, 0.022 lbs ai/A (0.5 oz/A)
# [7] = rating 3, 0.13 lbs ai/A (3 oz/A)
# [8] = rating 4, 0.022 lbs ai/A (0.5 oz/A)
# [9] = rating 4, 0.13 lbs ai/A (3 oz/A)
# [10] = rating 5, 0.022 lbs ai/A (0.5 oz/A)
# [11] = rating 5, 0.13 lbs ai/A (3 oz/A)
# [12] = rating 6, 0.022 lbs ai/A (0.5 oz/A)
# [13] = rating 6, 0.13 lbs ai/A (3 oz/A)
# [14] = rating 7, 0.022 lbs ai/A (0.5 oz/A)
# [15] = rating 7, 0.13 lbs ai/A (3 oz/A)
# [16] = 6 DA-A, Trt 2/4/6: Amicarbazone 0.0219, Tenacity 0.125 lb ai/a
# [17] = 6 DA-A, Trt 3/5/9: Amicarbazone 0.131, Tenacity 0.25 lb ai/a
# [18] = 7 DA-A, Trt 2/4/6: Amicarbazone 0.0219, Tenacity 0.125 lb ai/a
# [19] = 7 DA-A, Trt 3/5/9: Amicarbazone 0.131, Tenacity 0.25 lb ai/a
smiles,measurement,setting,value
"CC(C)c1nn(C(=O)NC(C)(C)C)c(=O)n1N [Amicarbazone, 4-amino-5-isopropyl-2-(tert-butyl-aminocarbonyl)-2,4-dihydro-3H-1,2,4-triazol-3-one]",percentage control,[1]; 14 DAT,98%
same,percentage control,[1]; 23 DAT,98%
same,percentage control,[1]; 36 DAT,98%
same,percentage control,[1]; 49 DAT,98%
same,percentage control,[1]; 65 DAT,96%
same,percentage control,[1]; 77 DAT,97%
same,Green Foxtail bleaching,Green Foxtail; [2],100 % of control
same,Green Foxtail injury,Green Foxtail; [2],97
same,Green Foxtail bleaching,Green Foxtail; [3],100 % of control
same,Green Foxtail injury,Green Foxtail; [3],67
same,Green Foxtail bleaching,Green Foxtail; [4],104 % of control
same,Green Foxtail injury,Green Foxtail; [4],94
same,Green Foxtail bleaching,Green Foxtail; [5],104 % of control
same,Green Foxtail injury,Green Foxtail; [5],69
same,Green Foxtail bleaching,Green Foxtail; [6],104 % of control
same,Green Foxtail injury,Green Foxtail; [6],97
same,Green Foxtail bleaching,Green Foxtail; [7],104 % of control
same,Green Foxtail injury,Green Foxtail; [7],81
same,Green Foxtail bleaching,Green Foxtail; [8],104 % of control
same,Green Foxtail injury,Green Foxtail; [8],97
same,Green Foxtail bleaching,Green Foxtail; [9],104 % of control
same,Green Foxtail injury,Green Foxtail; [9],84
same,Green Foxtail bleaching,Green Foxtail; [10],160 % of control
same,Green Foxtail injury,Green Foxtail; [10],102
same,Green Foxtail bleaching,Green Foxtail; [11],106 % of control
same,Green Foxtail injury,Green Foxtail; [11],77
same,Green Foxtail injury,Green Foxtail; [12],97
same,Green Foxtail injury,Green Foxtail; [13],73
same,Green Foxtail injury,Green Foxtail; [14],268
same,Green Foxtail injury,Green Foxtail; [15],144
same,Injury (1-9 scale),"Mustard (Sinapsis sp.); 3 DA-A, Trt 2/4/6: Amicarbazone 0.0219, Tenacity 0.125 lb ai/a",2.8 b
same,Injury (1-9 scale),"Mustard (Sinapsis sp.); 3 DA-A, Trt 3/5/9: Amicarbazone 0.131, Tenacity 0.25 lb ai/a",6.8 a
same,Bleaching (1-9 scale),Mustard (Sinapsis sp.); [16],2.0 bc
same,Injury (1-9 scale),Mustard (Sinapsis sp.); [16],2.8 c
same,Bleaching (1-9 scale),Mustard (Sinapsis sp.); [17],1.3 c
same,Injury (1-9 scale),Mustard (Sinapsis sp.); [17],6.5 ab
same,Bleaching (1-9 scale),Mustard (Sinapsis sp.); [18],2.0 bc
same,Injury (1-9 scale),Mustard (Sinapsis sp.); [18],4.3 c
same,Bleaching (1-9 scale),Mustard (Sinapsis sp.); [19],2.0 bc
same,Injury (1-9 scale),Mustard (Sinapsis sp.); [19],7.0 b
same,Injury (1-9 scale),"Mustard (Sinapsis sp.); 10 DA-A, Trt 2/4/6: Amicarbazone 0.0219, Tenacity 0.125 lb ai/a",6.0 b
same,Injury (1-9 scale),"Mustard (Sinapsis sp.); 10 DA-A, Trt 3/5/9: Amicarbazone 0.131, Tenacity 0.25 lb ai/a",8.8 a
same,Injury (1-9 scale),"Mustard (Sinapsis sp.); 14 DA-A, Trt 2/4/6: Amicarbazone 0.0219, Tenacity 0.125 lb ai/a",5.8 b
same,Injury (1-9 scale),"Mustard (Sinapsis sp.); 14 DA-A, Trt 3/5/9: Amicarbazone 0.131, Tenacity 0.25 lb ai/a",8.8 a
same,Mustard bleaching,Mustard (Sinapsis sp.); [2],119 % of control
same,Mustard injury,Mustard (Sinapsis sp.); [2],78 % of control
same,Mustard bleaching,Mustard (Sinapsis sp.); [3],132 % of control
same,Mustard injury,Mustard (Sinapsis sp.); [3],28 % of control
same,Mustard bleaching,Mustard (Sinapsis sp.); [4],94 % of control
same,Mustard injury,Mustard (Sinapsis sp.); [4],78 % of control
same,Mustard bleaching,Mustard (Sinapsis sp.); [5],94 % of control
same,Mustard injury,Mustard (Sinapsis sp.); [5],31 % of control
same,Mustard injury,Mustard (Sinapsis sp.); [6],61 % of control
same,Mustard injury,Mustard (Sinapsis sp.); [7],26 % of control
same,Mustard injury,Mustard (Sinapsis sp.); [8],39 % of control
same,Mustard injury,Mustard (Sinapsis sp.); [9],3 % of control
same,Mustard injury,Mustard (Sinapsis sp.); [10],42 % of control
same,Mustard injury,Mustard (Sinapsis sp.); [11],3 % of control
same,control of annual bluegrass,"Poa annua; high rate, by itself",reasonable control
same,Annual bluegrass bleaching,Poa annua; [2],100 % of control
same,Annual bluegrass injury,Poa annua; [2],104 % of control
same,Annual bluegrass bleaching,Poa annua; [3],100 % of control
same,Annual bluegrass injury,Poa annua; [3],71 % of control
same,Annual bluegrass bleaching,Poa annua; [4],100 % of control
same,Annual bluegrass injury,Poa annua; [4],104 % of control
same,Annual bluegrass bleaching,Poa annua; [5],100 % of control
same,Annual bluegrass injury,Poa annua; [5],61 % of control
same,Annual bluegrass bleaching,Poa annua; [6],100 % of control
same,Annual bluegrass injury,Poa annua; [6],108 % of control
same,Annual bluegrass bleaching,Poa annua; [7],91 % of control
same,Annual bluegrass injury,Poa annua; [7],67 % of control
same,Annual bluegrass bleaching,"Poa annua; rating 4/2, 0.022 lbs ai/A (0.5 oz/A)",100 % of control
same,Annual bluegrass bleaching,"Poa annua; rating 4/2, 0.13 lbs ai/A (3 oz/A)",88 % of control
same,Annual bluegrass bleaching,Poa annua; [8],107 % of control
same,Annual bluegrass injury,Poa annua; [8],96 % of control
same,Annual bluegrass bleaching,Poa annua; [9],94 % of control
same,Annual bluegrass injury,Poa annua; [9],53 % of control
same,Annual bluegrass injury,Poa annua; [10],90 % of control
same,Annual bluegrass injury,Poa annua; [11],52 % of control
same,Annual bluegrass injury,Poa annua; [12],85 % of control
same,Annual bluegrass injury,Poa annua; [13],31 % of control
same,Annual bluegrass injury,Poa annua; [14],85 % of control
same,Annual bluegrass injury,Poa annua; [15],24 % of control

# Reference: patent US11432549B2, “Carbamoyl triazolinone based herbicide combinations and method of use” (Arysta LifeScience Corporation, priority 2009, dated 2022)
